Structures can show the parent of a compound that is named as a salt.
Target: GST tagged IRAK4 (Homo sapiens (Human), UniProt Q9NWZ3)
Assay: IRAK4 Kinase Assay (IMAP fluorescence polarization)
Type: biochemical
Conditions: 0.5 nM GST tagged IRAK4, 100 μM ATP, 30 minutes at 25° C.
Experimental: The kinase activity of IRAK4 is determined by its ability to catalyze the phosphorylation of a fluorescent polypeptide substrate. The extent of phosphorylation is measured using the IMAP technology (Molecular Devices) where the phosphorylated fluorescent substrate binds to the large M(III)-based nanoparticles which reduces the rotational speed of the substrate and thus increases its fluorescent polarization (FP).
20 μL reaction mixture contains 10 mM TriHCl, pH 7.2, 0.5 nM GST tagged IRAK4 (SignalChem), 100 nM fluorescent peptide substrate (RP7030, Molecular Devices), 100 μM ATP, 1 mM DDT, 1 mM MgCl2, and 0.01% Tween 20. The reaction is initiated by the addition of ATP. After incubation for 30 minutes at 25° C., 60 μL of Progressive IMAP Reagent (Molecular Devices) is added to stop the reaction. Change in RP7030's FP is determined by a FP reader (Analyst HT, LJL BioSystems).

Sequence of GST tagged IRAK4 (Q9NWZ3 whole entry): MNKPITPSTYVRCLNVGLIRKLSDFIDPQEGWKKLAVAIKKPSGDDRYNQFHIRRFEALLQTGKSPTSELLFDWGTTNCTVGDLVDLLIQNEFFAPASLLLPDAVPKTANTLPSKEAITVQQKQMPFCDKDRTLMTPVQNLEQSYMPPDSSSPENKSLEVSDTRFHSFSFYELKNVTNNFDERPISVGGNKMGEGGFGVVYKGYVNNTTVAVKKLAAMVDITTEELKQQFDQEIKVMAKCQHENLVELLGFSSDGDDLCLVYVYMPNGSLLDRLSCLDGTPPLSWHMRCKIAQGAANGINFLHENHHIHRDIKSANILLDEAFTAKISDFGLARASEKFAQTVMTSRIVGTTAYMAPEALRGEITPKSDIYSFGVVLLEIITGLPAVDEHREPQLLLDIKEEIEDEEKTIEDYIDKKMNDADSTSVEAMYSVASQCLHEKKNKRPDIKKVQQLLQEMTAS

Structure (SMILES)	IC50 [nM]
N#Cc1cscc1NC(=O)c1csc2ncc(N3C[C@H]4CC[C@@H]3CN4)nc12 (single isomer, unassigned) [Example 66, N-(4-cyanothiophen-3-yl)-2-[(1S,4S)- or (1R,4R)-2,5-diazabicylo[2.2.2]oct-2-yl]thieno[2,3-b] pyrazine-7-carboxamide formate]	220
O=C(Nc1cscc1Cl)c1csc2ncc(N3C[C@@H]4CC[C@H]3CN4)nc12 (single isomer, unassigned) [Example 108, N-(4-chlorothiophen-3-yl)-2-[(1S,4S)- or (1R,4R)-2,5-diazabicyclo-[2.2.2]oct-2-yl]-thieno[2,3-b]-pyrazine-7-carboxamide trifluoroacetate]	307
Cn1cc(NC(=O)c2csc3ncc(N4C5CCC4CNC5)nc23)c(C(F)(F)F)n1 [Example 45, 2-(3,8-diazabicyclo[3.2.1]oct-8-yl)-N-[1-methyl-3-(trifluoromethyl)-1H-pyrazol-4-yl]thieno[2,3-b] pyrazine-7-carboxamide trifluoroacetate]	2
Cn1cc(NC(=O)c2csc3ncc(N4CCCNCC4)nc23)c(C(F)F)n1 [Example 14, 2-(1,4-diazepan-1-yl)-N-[3-(difluoromethyl)-1-methyl-1H-pyrazol-4-yl]thieno[2,3-b] pyrazine-7-carboxamide trifluoroacetate]	5
N#Cc1ccccc1NC(=O)c1csc2ncc(N[C@H]3CCCCNC3)nc12 (single isomer, unassigned) [Example 93, 2-[(3S)- or (3R)-azepan-3-ylamino]-N-(2-cyanophenyl)-thieno[2,3-b]-pyrazine-7-carboxamide trifluoroacetate]	4
Cn1cc(NC(=O)c2csc3ncc(N4CCCNCC4)nc23)c(C(F)(F)F)n1 [Example 6, 2-(1,4-diazepan-1-yl)-N-[1-methyl-3-(trifluoromethyl)-1H-pyrazol-4-yl] thieno[2,3-b] pyrazine-7-carboxamide]	17
Cn1cc(NC(=O)c2csc3ncc(N4C[C@H]5CC[C@@H]4CN5)nc23)c(C#N)n1 (single isomer, unassigned) [Example 27, N-(3-cyano-1-methyl-1H-pyrazol-4-yl)-2-[(1S,4S)- or (1R,4R)-2,5-diazabicyclo[2.2.2]oct-2-yl]thieno[2,3-b] pyrazine-7-carboxamide trifluoroacetate]	37
N#Cc1cscc1NC(=O)c1csc2ncc(N[C@@H]3CCCC[C@@H]3N)nc12 [Example 57, 2-{[(1R,2S)-2-amino-cyclohexyl]amino}-N-(4-cyanothiophen-3-yl)thieno[2,3-b] pyrazine-7-carboxamide trifluoroacetate]	0.5
O=C(Nc1ccsc1Cl)c1csc2ncc(N3C[C@H]4CC[C@@H]3CN4)nc12 (single isomer, unassigned) [Example 62, N-(2-chlorothiophen-3-yl)-2-[(1S,4S)- or (1R,4R)-2,5-diazabicylo[2.2.2]oct-2-yl]thieno[2,3-b] pyrazine-7-carboxamide trifluoroacetate]	274
N[C@@H]1[C@H](Nc2cnc3scc(C(=O)Nc4ccccc4Cl)c3n2)CCCC1(F)F [Example 101, 2-{[(1R,2R)-2-amino-3,3-difluorocyclohexyl]-amino}-N-(2-chlorophenyl)-thieno[2,3-b]-pyrazine-7-carboxamide trifluoroacetate]	545
N[C@@H]1[C@H](Nc2cnc3scc(C(=O)Nc4ccccc4Br)c3n2)CCCC1(F)F [Example 96, 2-{[(1R,2R)-2-amino-3,3-difluorocyclo-hexyl]amino}-N-(2-bromo-phenyl)thieno-[2,3-b]-pyrazine-7-carboxamide]	2010
O=C(Nc1ccsc1C(F)(F)F)c1csc2ncc(N3CCCNCC3)nc12 [Example 73, 2-(1,4-diazepan-1-yl)-N-[2-(trifluoromethyl)thiophen-3-yl] thieno[2,3-b] pyrazine-7-carboxamide trifluoroacetate]	1590
N[C@H]1CCCC[C@H]1Nc1cnc2scc(C(=O)Nc3cscc3Br)c2n1 [Example 53, 2-{[(1R,2S)-2-amino-cyclohexyl]amino}-N-(4-bromothiophen-3-yl)thieno[2,3-b] pyrazine-7-carboxamide trifluoroacetate]	0.6
Cn1cc(NC(=O)c2csc3ncc(N[C@@H]4CCCC[C@@H]4N)nc23)c(C#N)n1 [Example 37, 2-{[(1R,2S)-2-aminocyclohexyl]amino}-N-(3-cyano-1-methyl-1H-pyrazol-4-yl)thieno[2,3-b] pyrazine-7-carboxamide trifluoroacetate]	0.4
Cn1cc(NC(=O)c2csc3ncc(N4C[C@H]5CC[C@@H]4CN5)nc23)c(Br)n1 (single isomer, unassigned) [Example 20, N-(3-bromo-1-methyl-1H-pyrazol-4-yl)-2-[(1S,4S)- or (1R,4R)-2,5-diazabicyclo[2.2.2]oct-2-yl]thieno[2,3-b] pyrazine-7-carboxamide trifluoroacetate]	19

More lines, in order of falling IC50, values ahead:

IC50 [nM]	Structure (SMILES)
4180	O=C(Nc1ccccc1C(F)F)c1csc2ncc(N3C[C@H]4CC[C@@H]3CN4)nc12 (single isomer, unassigned) [Example 104, 2-[(1S,4S)- or (1R,4R)-2,5-diazabicyclo-[2.2.2]oct-2-yl]-N-[2-(difluoro-methyl)phenyl]-thieno[2,3-b]-pyrazine-7-carboxamide trifluoroacetate]
3650	O=C(Nc1ccsc1C(F)(F)F)c1csc2ncc(N3C[C@@H]4CC[C@H]3CN4)nc12 (single isomer, unassigned) [Example 74, 2-[(1S,4S)- or (1R,4R)-2,5-diazabicyclo [2.2.2]oct-2-yl]-N-[2-(trifluoromethyl)thiophen-3-yl] thieno[2,3-b] pyrazine-7-carboxamide trifluoroacetate]
2340	O=C(Nc1ccccc1Br)c1csc2ncc(N3CCCNCC3)nc12 [Example 82, N-(2-bromophenyl)-2-(1,4-diazepan-1-yl)thieno[2,3-b]pyrazine-7-carboxamide trifluoroacetate]
1160	O=C(Nc1ccsc1Br)c1csc2ncc(N3CCCNCC3)nc12 [Example 51, N-(2-bromothiophen-3-yl)-2-(1,4-diazepan-1-yl)thieno[2,3-b] pyrazine-7-carboxamide trifluoroacetate]
899	N#Cc1ccccc1NC(=O)c1csc2ncc(N3CCNCC4(CC4)C3)nc12 [Example 83, N-(2-cyanophenyl)-2-(5,8-diazaspiro-[2.6]non-5-yl)-thieno[2,3-b]-pyrazine-7-carboxamide trifluoroacetate]
371	N#Cc1cscc1NC(=O)c1csc2ncc(N[C@@H]3CCCC(F)(F)[C@@H]3N)nc12 [Example 79, 2-{[(1R,2R)-2-amino-3,3-difluorocyclohexyl]amino}-N-(4-cyanothiophen-3-yl) thieno[2,3-b] pyrazine-7-carboxamide trifluoroacetate]
346	O=C(Nc1cscc1Br)c1csc2ncc(N3CCCNCC3)nc12 [Example 48, N-(4-bromothiophen-3-yl)-2-(1,4-diazepan-1-yl)thieno[2,3-b] pyrazine-7-carboxamide trifluoroacetate]
332	Cn1cc(NC(=O)c2csc3ncc(N[C@@H]4CCCC(F)(F)[C@@H]4N)nc23)c(C(F)(F)F)n1 [Example 5, 2-{[(1R,2R)-2-amino-3,3-difluorocyclohexyl]amino}-N-[1-methyl-3-(trifluoromethyl)-1H-pyrazol-4-yl] thieno[2,3-b] pyrazine-7-carboxamide trifluoroacetate]
310	N#Cc1cscc1NC(=O)c1csc2ncc(N3C[C@@H]4CC[C@H]3CN4)nc12 (single isomer, unassigned) [Example 65, N-(4-cyanothiophen-3-yl)-2-[(1S,4S)- or (1R,4R)-2,5-diazabicylo[2.2.2]oct-2-yl]thieno[2,3-b] pyrazine-7-carboxamide formate]
100	Cn1cc(NC(=O)c2csc3ncc(N[C@@H]4CCCC[C@@H]4O)nc23)c(C(F)(F)F)n1 [Example 3, 2-{[(1R,2S)-2-hydroxycyclohexyl]amino}-N-[1-methyl-3-(trifluoromethyl)-1H-pyrazol-4-yl] thieno[2,3-b] pyrazine-7-carboxamide trifluoroacetate]
73	Cn1cc(NC(=O)c2csc3ncc(N4C[C@@H]5CC[C@H]4CN5)nc23)c(Cl)n1 (single isomer, unassigned) [Example 16, N-(3-chloro-1-methyl-1H-pyrazol-4-yl)-2-[(1S,4S)- or (1R,4R)-2,5-diazabicyclo[2.2.2]oct-2-yl]thieno[2,3-b] pyrazine-7-carboxamide trifluoroacetate]
2	N#Cc1ccccc1NC(=O)c1csc2ncc(N[C@@H]3CCCNC3)nc12 [Example 85, N-(2-cyanophenyl)-2-[(3R)-piperidin-3-ylamino]-thieno[2,3-b]-pyrazine-7-carboxamide trifluoroacetate]
1	N[C@H]1CCCC[C@H]1Nc1cnc2scc(C(=O)Nc3ccsc3Br)c2n1 [Example 54, 2-{[(1R,2S)-2-amino-cyclohexyl]amino}-N-(2-bromothiophen-3-yl)thieno[2,3-b] pyrazine-7-carboxamide trifluoroacetate]
0.6	N[C@H]1CCCC[C@H]1Nc1cnc2scc(C(=O)Nc3ccsc3Cl)c2n1 [Example 56, 2-{[(1R,2S)-2-amino-cyclohexyl]amino}-N-(2-chlorothiophen-3-yl)thieno[2,3-b] pyrazine-7-carboxamide trifluoroacetate]

From patent US10040802B2, “Thienopyrazine inhibitors of IRAK4 activity” (MERCK SHARP & DOHME CORP., priority 2015, dated 2018)
